Experimental data taken from ChEMBL document CHEMBL1130753, “Solid phase synthesis of a biased mini tetrapeptoid-library for the discovery of monodentate ITAM mimics as ZAP-70 inhibitors” (Bioorg Med Chem Lett, 1998).
Where a SMILES comes first, the peptide text is derived from it. [ ]: non-standard residue; d: D form. The star is where a group is joined. Gly(N-Bn(4-CH2PO3H2)) = O=C(O)CNCc1ccc(CP(=O)(O)O)cc1; N(3-phenylpropyl)Gly = O=C(O)CNCCCc1ccccc1; Hexanoyl = CCCCCC(=O)*; Nleu = CC(C)CNCC(=O)O; NEtG = CCNCC(=O)O

What was measured:
[1] = target: Tyrosine-protein kinase Lck (Homo sapiens) (UniProt P06239); test: Compound was tested for its antagonistic activity at 100 uM concentration against SH2 domain of LCK protein.; type: functional
[2] = target: Growth factor receptor-bound protein 2 (Homo sapiens) (UniProt P62993); test: Antagonistic activity at 100 uM concentration against SH-2 domain of growth factor receptor binding protein (Grb2).
[3] = target: T1, Tyrosine-protein kinase ZAP-70 (Homo sapiens, UniProt P43403); test: Inhibition of binding to human ZAP-70 SH2 domain
T1 sequence (P43403 whole entry): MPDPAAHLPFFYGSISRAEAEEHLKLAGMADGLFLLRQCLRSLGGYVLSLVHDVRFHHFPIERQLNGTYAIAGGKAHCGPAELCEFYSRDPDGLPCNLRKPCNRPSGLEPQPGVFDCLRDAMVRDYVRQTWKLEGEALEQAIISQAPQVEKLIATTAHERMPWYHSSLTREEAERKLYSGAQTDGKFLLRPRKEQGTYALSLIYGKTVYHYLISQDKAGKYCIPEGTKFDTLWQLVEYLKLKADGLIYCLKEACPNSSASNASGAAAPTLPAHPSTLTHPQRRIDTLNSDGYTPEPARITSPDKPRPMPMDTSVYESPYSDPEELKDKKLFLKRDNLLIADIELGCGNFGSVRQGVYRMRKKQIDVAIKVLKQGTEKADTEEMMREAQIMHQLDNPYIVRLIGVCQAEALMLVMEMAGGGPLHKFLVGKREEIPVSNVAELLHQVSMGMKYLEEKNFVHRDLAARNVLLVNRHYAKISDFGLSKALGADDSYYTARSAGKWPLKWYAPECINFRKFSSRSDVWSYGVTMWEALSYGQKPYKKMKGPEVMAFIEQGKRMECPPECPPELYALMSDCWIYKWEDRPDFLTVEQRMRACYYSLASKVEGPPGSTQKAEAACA

Tyrosine-protein kinase Lck (Homo sapiens), sequence (P06239 2-509 limits assumed): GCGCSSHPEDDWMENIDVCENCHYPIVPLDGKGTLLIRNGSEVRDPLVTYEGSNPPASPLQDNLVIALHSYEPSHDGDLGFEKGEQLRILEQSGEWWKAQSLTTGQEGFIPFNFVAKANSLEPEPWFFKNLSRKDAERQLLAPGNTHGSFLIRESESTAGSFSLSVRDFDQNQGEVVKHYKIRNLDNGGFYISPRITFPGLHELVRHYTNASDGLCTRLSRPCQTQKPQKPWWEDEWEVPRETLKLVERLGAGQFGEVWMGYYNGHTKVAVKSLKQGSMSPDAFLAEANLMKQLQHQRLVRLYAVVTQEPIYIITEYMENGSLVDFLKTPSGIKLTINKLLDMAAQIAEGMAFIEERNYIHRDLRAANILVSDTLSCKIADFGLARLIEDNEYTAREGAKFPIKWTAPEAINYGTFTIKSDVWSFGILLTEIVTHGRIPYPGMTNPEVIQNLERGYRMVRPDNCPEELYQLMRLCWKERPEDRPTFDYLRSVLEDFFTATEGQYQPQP
Growth factor receptor-bound protein 2 (Homo sapiens), sequence (P62993 whole entry, looked up, the tested form may be a part): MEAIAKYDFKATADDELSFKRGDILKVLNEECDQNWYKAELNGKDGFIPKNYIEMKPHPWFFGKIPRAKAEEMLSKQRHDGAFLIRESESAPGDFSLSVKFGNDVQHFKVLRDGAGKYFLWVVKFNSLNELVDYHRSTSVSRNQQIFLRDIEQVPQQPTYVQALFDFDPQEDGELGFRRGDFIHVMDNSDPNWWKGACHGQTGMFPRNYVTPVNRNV

Q: With `CCCCCC(=O)N(CC(=O)N(CCCc1ccccc1)CC(=O)N(CC)CC(=O)N(CC)CC(N)=O)Cc1ccc(CP(=O)(O)O)cc1` (Hexanoyl-[Gly(N-Bn(4-CH2PO3H2))][N(3-phenylpropyl)Gly][NEtG][NEtG]-NH2) as the molecule, how does the inhibition [1] read?
A: Its inhibition is 4%.

Q: What about the inhibition [2] of the same molecule?
A: Its inhibition is 5%.

Q: For `CCCCCC(=O)N(CC(=O)N(CC(=O)N(CC(=O)N(CCCc1ccccc1)CC(N)=O)CC(C)C)CC(C)C)Cc1ccc(CP(=O)(O)O)cc1` (Hexanoyl-[Gly(N-Bn(4-CH2PO3H2))][Nleu][Nleu][N(3-phenylpropyl)Gly]-NH2), which inhibition [1] is on record?
A: The inhibition was 1%.

Q: What about the inhibition [2] of the same molecule?
A: The inhibition was 5%.

Q: Which results are given for `CCCCCC(=O)N(CC(=O)N(CC)CC(=O)N(CC)CC(=O)N(CCCc1ccccc1)CC(N)=O)Cc1ccc(CP(=O)(O)O)cc1` (Hexanoyl-[Gly(N-Bn(4-CH2PO3H2))][NEtG][NEtG][N(3-phenylpropyl)Gly]-NH2)?
A: inhibition [1]: 1%; inhibition [2]: 4%

Q: `CCCCCC(=O)N(CC(=O)N(CCCc1ccccc1)CC(=O)N(CCCc1ccccc1)CC(=O)N(CC(N)=O)CC(C)C)Cc1ccc(CP(=O)(O)O)cc1` (Hexanoyl-[Gly(N-Bn(4-CH2PO3H2))][N(3-phenylpropyl)Gly][N(3-phenylpropyl)Gly][Nleu]-NH2) was tested. Which inhibition [1] did it give?
A: The inhibition was 6%.

Q: What about the inhibition [2] of the same molecule?
A: The inhibition was 3%.

Q: What does the source list for `CCCCCC(=O)N(CC(=O)N(CCCc1ccccc1)CC(=O)N(CCCc1ccccc1)CC(=O)N(CC)CC(N)=O)Cc1ccc(CP(=O)(O)O)cc1` (Hexanoyl-[Gly(N-Bn(4-CH2PO3H2))][N(3-phenylpropyl)Gly][N(3-phenylpropyl)Gly][NEtG]-NH2)?
A: inhibition [1]: 4%; inhibition [2]: 4%

Q: Which results are given for `CCCCCC(=O)N(CC(=O)N(CC(=O)N(CC(=O)N(CC(N)=O)CC(C)C)CC(C)C)CC(C)C)Cc1ccc(CP(=O)(O)O)cc1` (Hexanoyl-[Gly(N-Bn(4-CH2PO3H2))][Nleu][Nleu][Nleu]-NH2)?
A: inhibition [1]: 3%; inhibition [2]: 6%

Q: How did the inhibition [1] turn out when `CCCCCC(=O)N(CC(=O)N(CCCc1ccccc1)CC(=O)N(CC(=O)N(CC(N)=O)CC(C)C)CC(C)C)Cc1ccc(CP(=O)(O)O)cc1` (Hexanoyl-[Gly(N-Bn(4-CH2PO3H2))][N(3-phenylpropyl)Gly][Nleu][Nleu]-NH2) was run?
A: The inhibition was 16%.

Q: What about the inhibition [2] of the same molecule?
A: Its inhibition is 0%.

Q: Which results are given for `CCCCCC(=O)N(CC(=O)N(CC(=O)N(CC)CC(=O)N(CCCc1ccccc1)CC(N)=O)CC(C)C)Cc1ccc(CP(=O)(O)O)cc1` (Hexanoyl-[Gly(N-Bn(4-CH2PO3H2))][Nleu][NEtG][N(3-phenylpropyl)Gly]-NH2)?
A: inhibition [1]: 10%; inhibition [2]: 2%

Q: Which results are given for `CCCCCC(=O)N(CC(=O)N(CC)CC(=O)N(CC(=O)N(CC(N)=O)CC(C)C)CC(C)C)Cc1ccc(CP(=O)(O)O)cc1` (Hexanoyl-[Gly(N-Bn(4-CH2PO3H2))][NEtG][Nleu][Nleu]-NH2)?
A: inhibition [1]: 6%; inhibition [2]: 8%

Q: What does the source list for `CCCCCC(=O)N(CC(=O)N(CCCc1ccccc1)CC(=O)N(CC(=O)N(CC)CC(N)=O)CC(C)C)Cc1ccc(CP(=O)(O)O)cc1` (Hexanoyl-[Gly(N-Bn(4-CH2PO3H2))][N(3-phenylpropyl)Gly][Nleu][NEtG]-NH2)?
A: inhibition [1]: 5%; inhibition [2]: 6%

Q: For `CCCCCC(=O)N(CC(=O)N(CC(=O)N(CC)CC(=O)N(CC)CC(N)=O)CC(C)C)Cc1ccc(CP(=O)(O)O)cc1` (Hexanoyl-[Gly(N-Bn(4-CH2PO3H2))][Nleu][NEtG][NEtG]-NH2), which inhibition [1] is on record?
A: The inhibition was 61%.

Q: And the inhibition [2]?
A: The inhibition was 15%.

Q: How did the inhibition [1] turn out when `CCCCCC(=O)N(CC(=O)N(CC)CC(=O)N(CC(=O)N(CCCc1ccccc1)CC(N)=O)CC(C)C)Cc1ccc(CP(=O)(O)O)cc1` (Hexanoyl-[Gly(N-Bn(4-CH2PO3H2))][NEtG][Nleu][N(3-phenylpropyl)Gly]-NH2) was run?
A: The inhibition was 15%.

Q: What about the inhibition [2] of the same molecule?
A: Its inhibition is 2%.

Q: Which results are given for `CCCCCC(=O)N(CC(=O)N(CC(=O)N(CCCc1ccccc1)CC(=O)N(CC)CC(N)=O)CC(C)C)Cc1ccc(CP(=O)(O)O)cc1` (Hexanoyl-[Gly(N-Bn(4-CH2PO3H2))][Nleu][N(3-phenylpropyl)Gly][NEtG]-NH2)?
A: inhibition [1]: 4%; inhibition [2]: 5%

Q: For `CCCCCC(=O)N(CC(=O)N(CC(=O)N(CC)CC(=O)N(CC(N)=O)CC(C)C)CC(C)C)Cc1ccc(CP(=O)(O)O)cc1` (Hexanoyl-[Gly(N-Bn(4-CH2PO3H2))][Nleu][NEtG][Nleu]-NH2), which inhibition [1] is on record?
A: The inhibition was 9%.

Q: And the inhibition [2]?
A: The inhibition was 30%.

Q: `CCCCCC(=O)N(CC(=O)N(CCCc1ccccc1)CC(=O)N(CC)CC(=O)N(CCCc1ccccc1)CC(N)=O)Cc1ccc(CP(=O)(O)O)cc1` (Hexanoyl-[Gly(N-Bn(4-CH2PO3H2))][N(3-phenylpropyl)Gly][NEtG][N(3-phenylpropyl)Gly]-NH2) was tested. Which IC50 [3] did it give?
A: Its IC50 is over 100 µM.

Q: And the inhibition [1]?
A: Its inhibition is 4%.

Q: What about the inhibition [2] of the same molecule?
A: The inhibition was 20%.

Q: With `CCCCCC(=O)N(CC(=O)N(CCCc1ccccc1)CC(=O)N(CC)CC(=O)N(CC(N)=O)CC(C)C)Cc1ccc(CP(=O)(O)O)cc1` (Hexanoyl-[Gly(N-Bn(4-CH2PO3H2))][N(3-phenylpropyl)Gly][NEtG][Nleu]-NH2) as the molecule, how does the inhibition [1] read?
A: Its inhibition is 7%.

Q: And the inhibition [2]?
A: The inhibition was 3%.

Q: Which inhibition [1] does the source give for `CCCCCC(=O)N(CC(=O)N(CC)CC(=O)N(CC)CC(=O)N(CC(N)=O)CC(C)C)Cc1ccc(CP(=O)(O)O)cc1` (Hexanoyl-[Gly(N-Bn(4-CH2PO3H2))][NEtG][NEtG][Nleu]-NH2) here?
A: The inhibition was 2%.

Q: And the inhibition [2]?
A: The inhibition was 2%.

Q: With `CCCCCC(=O)N(CC(=O)N(CC)CC(=O)N(CCCc1ccccc1)CC(=O)N(CCCc1ccccc1)CC(N)=O)Cc1ccc(CP(=O)(O)O)cc1` (Hexanoyl-[Gly(N-Bn(4-CH2PO3H2))][NEtG][N(3-phenylpropyl)Gly][N(3-phenylpropyl)Gly]-NH2) as the molecule, how does the inhibition [1] read?
A: Its inhibition is 0%.

Q: What about the inhibition [2] of the same molecule?
A: The inhibition was 2%.

Q: `CCCCCC(=O)N(CC(=O)N(CC)CC(=O)N(CC(=O)N(CC)CC(N)=O)CC(C)C)Cc1ccc(CP(=O)(O)O)cc1` (Hexanoyl-[Gly(N-Bn(4-CH2PO3H2))][NEtG][Nleu][NEtG]-NH2) was tested. Which inhibition [1] did it give?
A: Its inhibition is 0%.

Q: And the inhibition [2]?
A: The inhibition was 2%.

Q: For `CCCCCC(=O)N(CC(=O)N(CC)CC(=O)N(CCCc1ccccc1)CC(=O)N(CC)CC(N)=O)Cc1ccc(CP(=O)(O)O)cc1` (Hexanoyl-[Gly(N-Bn(4-CH2PO3H2))][NEtG][N(3-phenylpropyl)Gly][NEtG]-NH2), which inhibition [1] is on record?
A: Its inhibition is 7%.

Q: And the inhibition [2]?
A: Its inhibition is 8%.

Q: For `CCCCCC(=O)N(CC(=O)N(CC)CC(=O)N(CCCc1ccccc1)CC(=O)N(CC(N)=O)CC(C)C)Cc1ccc(CP(=O)(O)O)cc1` (Hexanoyl-[Gly(N-Bn(4-CH2PO3H2))][NEtG][N(3-phenylpropyl)Gly][Nleu]-NH2), which inhibition [1] is on record?
A: The inhibition was 3%.

Q: And the inhibition [2]?
A: Its inhibition is 4%.

Q: With `CCCCCC(=O)N(CC(=O)N(CC)CC(=O)N(CC)CC(=O)N(CC)CC(N)=O)Cc1ccc(CP(=O)(O)O)cc1` (Hexanoyl-[Gly(N-Bn(4-CH2PO3H2))][NEtG][NEtG][NEtG]-NH2) as the molecule, how does the inhibition [1] read?
A: The inhibition was 4%.

Q: And the inhibition [2]?
A: Its inhibition is 6%.

Q: Which results are given for `CCCCCC(=O)N(CC(=O)N(CC(=O)N(CCCc1ccccc1)CC(=O)N(CC(N)=O)CC(C)C)CC(C)C)Cc1ccc(CP(=O)(O)O)cc1` (Hexanoyl-[Gly(N-Bn(4-CH2PO3H2))][Nleu][N(3-phenylpropyl)Gly][Nleu]-NH2)?
A: inhibition [1]: 1%; inhibition [2]: 3%

Q: What does the source list for `CCCCCC(=O)N(CC(=O)N(CC(=O)N(CC(=O)N(CC)CC(N)=O)CC(C)C)CC(C)C)Cc1ccc(CP(=O)(O)O)cc1` (Hexanoyl-[Gly(N-Bn(4-CH2PO3H2))][Nleu][Nleu][NEtG]-NH2)?
A: inhibition [1]: 1%; inhibition [2]: 4%

Q: Which results are given for `CCCCCC(=O)N(CC(=O)N(CC(=O)N(CCCc1ccccc1)CC(=O)N(CCCc1ccccc1)CC(N)=O)CC(C)C)Cc1ccc(CP(=O)(O)O)cc1` (Hexanoyl-[Gly(N-Bn(4-CH2PO3H2))][Nleu][N(3-phenylpropyl)Gly][N(3-phenylpropyl)Gly]-NH2)?
A: inhibition [1]: 3%; inhibition [2]: 0%

Q: Which inhibition [1] does the source give for `CCCCCC(=O)N(CC(=O)N(CCCc1ccccc1)CC(=O)N(CCCc1ccccc1)CC(=O)N(CCCc1ccccc1)CC(N)=O)Cc1ccc(CP(=O)(O)O)cc1` (Hexanoyl-[Gly(N-Bn(4-CH2PO3H2))][N(3-phenylpropyl)Gly][N(3-phenylpropyl)Gly][N(3-phenylpropyl)Gly]-NH2) here?
A: Its inhibition is 4%.

Q: What about the inhibition [2] of the same molecule?
A: Its inhibition is 5%.

Q: What does the source list for `CCCCCC(=O)N(CC(=O)N(CCCc1ccccc1)CC(=O)N(CC(=O)N(CCCc1ccccc1)CC(N)=O)CC(C)C)Cc1ccc(CP(=O)(O)O)cc1` (Hexanoyl-[Gly(N-Bn(4-CH2PO3H2))][N(3-phenylpropyl)Gly][Nleu][N(3-phenylpropyl)Gly]-NH2)?
A: IC50 [3]: > 100 µM; inhibition [1]: 32%; inhibition [2]: 32%
